Columns and labels:
Phaedon cochleariae = test: Phaedon test (PHAECO spray treatment); format: in vivo; conditions: 500 g/ha, Chinese cabbage discs, after 7 days
Description: Phaedon Test ([…] Spray Treatment) Solvent: 78.0 parts by weight of acetone • • 1.5 parts by weight of dimethylformamide Emulsifier: 0.5 part by weight of alkylaryl polyglycol ether To prepare an appropriate active ingredient preparation, 1 part by weight of active ingredient is mixed with the stated amounts of solvent and emulsifier, and the concentrate is diluted with emulsifier-containing water to the desired concentration. Discs of Chinese cabbage (Brassica pekinensis) are sprayed with an active ingredient preparation of the desired concentration and, after drying, populated with larvae of the mustard beetle (Phaedon cochleariae). After 7 days, the efficacy in % is determined. 100% means that all beetle larvae have been killed; 0% means that none of the beetle larvae have been killed.

Tetranychus urticae = test: Tetranychus test, OP-resistant (TETRUR spray treatment); format: in vivo; conditions: 500 g/ha, bean leaf discs, after 6 days
Description: Tetranychus Test, OP-resistant (TETRUR Spray Treatment)
Solvent: 78.0 parts by weight of acetone • • 1.5 parts by weight of dimethylformamide
Emulsifier: 0.5 part by weight of alkylaryl polyglycol ether
To prepare an appropriate active ingredient preparation, 1 part by weight of active ingredient is mixed with the stated amounts of solvent and emulsifier, and the concentrate is diluted with emulsifier-containing water to the desired concentration. Discs of bean leaves (Phaseolus vulgaris) infested by all stages of the red spider mite (Tetranychus urticae) are sprayed with an active ingredient preparation of the desired concentration. After 6 days, the efficacy in % is determined. 100% means that all spider mites have been killed; 0% means that none of the spider mites have been killed.

Boophilus microplus = Boophilus microplus test (BOOPMI injection); format: in vivo; conditions: 20 μg/animal, injection into abdomen, after 7 days, laying of fertile eggs
Description: Boophilus microplus Test (BOOPMI Injection) Solvent: Dimethyl Sulphoxide To prepare an appropriate active ingredient formulation, 10 mg of active ingredient are mixed with 0.5 ml of solvent and the concentrate is diluted with solvent to the desired concentration. The active ingredient solution is injected into the abdomen (Boophilus microplus), and the animals are transferred into dishes and stored in a climate-controlled room. The efficacy is assessed by laying of fertile eggs. After 7 days, the efficacy in % is determined. 100% means that none of the ticks has laid any fertile eggs.

Lucilia cuprina larvae = test: Lucilia cuprina test (LUCICU); format: in vivo; conditions: 100 ppm, treated horse meat, after 2 days
Description: (§1) Lucilia cuprina Test (LUCICU) Solvent: Dimethyl Sulphoxide To prepare an appropriate active ingredient formulation, 10 mg of active ingredient are mixed with 0.5 ml of dimethyl sulphoxide and the concentrate is diluted with water to the desired concentration. Vessels containing horse meat treated with the active ingredient preparation of the desired concentration are populated with about 20 Lucilia cuprina larvae. After 2 days, the kill in % is determined. 100% means that all of the larvae have been killed; 0% means that none of the larvae have been killed.

Ctenocephalides felis = Ctenocephalides felis test (CTECFE); format: in vivo; conditions: 100 ppm in citrated cow's blood, after 2 days
Description: Ctenocephalides felis Test ([…]) Solvent: 1 Part by Weight of Dimethyl Sulphoxide For the purpose of preparing an appropriate active ingredient formulation, 10 mg of active ingredient are mixed with 0.5 ml of dimethyl sulphoxide. A portion of the concentrate is diluted with citrated cow's blood and the desired concentration is established. About 20 unfed adult fleas (Ctenocephalides felis) are introduced into a chamber closed at the top and bottom with gauze. A metal cylinder, the bottom of which is closed with Parafilm, is placed onto the chamber. The cylinder contains the blood/active ingredient preparation, which can be imbibed by the fleas through the Parafilm membrane. After 2 days, the kill in % is determined. 100% means that all fleas have been killed; 0% means that none of the fleas have been killed.

[1] = logP by reversed-phase HPLC (EEC Directive 79/831 Annex V.A8); format: physicochemical
Source text: [table] The calibration is effected with unbranched alkan-2-ones (having 3 to 16 carbon atoms) with known log P values (log P values determined on the basis of the retention times by linear interpolation between two successive alkanones).

Musca domestica = Musca domestica test; format: in vivo; conditions: 100 ppm, after 2 days
Description: as §1, with “Musca domestica” for “Lucilia cuprina”, “Test” for “Test (LUCICU)”, “a sponge” for “horse meat”, “adult Musca domestica.” for “about 20 Lucilia cuprina larvae.”, “flies” for “larvae”

Spodoptera frugiperda = Spodoptera frugiperda test (SPODFR spray treatment); format: in vivo; conditions: 500 g/ha, maize leaf discs, after 7 days
Description: Spodoptera frugiperda Test (SPODFR Spray Treatment) Solvent: 78.0 parts by weight of acetone • • 1.5 parts by weight of dimethylformamide Emulsifier: 0.5 part by weight of alkylaryl polyglycol ether To prepare an appropriate active ingredient preparation, 1 part by weight of active ingredient is mixed with the stated amounts of solvent and emulsifier, and the concentrate is diluted with emulsifier-containing water to the desired concentration. Discs of maize leaves (Zea mays) are sprayed with an active ingredient preparation of the desired concentration and, after drying, populated with caterpillars of the armyworm (Spodoptera frugiperda). After 7 days, the efficacy in % is determined. 100% means that all caterpillars have been killed; 0% means that none of the caterpillars have been killed.

Myzus persicae = test: Myzus test (MYZUPE spray treatment); format: in vivo; conditions: 500 g/ha, Chinese cabbage discs, after 6 days
Description: Myzus test (MYZUPE Spray Treatment) Solvent: 78 parts by weight of acetone • • 1.5 parts by weight of dimethylformamide Emulsifier: 0.5 part by weight of alkylaryl polyglycol ether To prepare an appropriate active ingredient preparation, 1 part by weight of active ingredient is mixed with the stated amounts of solvent and emulsifier, and the concentrate is diluted with emulsifier-containing water to the desired concentration. Discs of Chinese cabbage (Brassica pekinensis) infested by all stages of the green peach aphid (Myzus persicae) are sprayed with an active ingredient preparation of the desired concentration. After 6 days, the efficacy in % is determined. 100% means that all of the aphids have been destroyed; 0% means that none of the aphids have been destroyed.

[2] = * LC-MS, acidic range, pH 2.7, 0.1% aqueous formic acid / acetonitrile

Structure (SMILES)	log P [1, 2]	log P ([1]; *** LC-MS, neutral range, pH 7.8, 0.001 molar aqueous ammonium hydrogencarbonate / acetonitrile)	efficacy (Phaedon cochleariae) [%]	efficacy (Tetranychus urticae) [%]	efficacy (Boophilus microplus) [%]	efficacy (kill) (Lucilia cuprina larvae) [%]	efficacy (kill) (Ctenocephalides felis) [%]	efficacy (kill) (Musca domestica) [%]	efficacy (Spodoptera frugiperda) [%]	efficacy (Myzus persicae) [%]
CCC(OC)c1nn(-c2nccnc2OC)c(N)c1-c1ccc(Cl)c(Cl)c1 (centres unmarked) [Ex. 3]			100	100	100	100				
COc1nccnc1-n1nc(C(F)(F)F)c(-c2cc(Cl)cc(Cl)c2)c1N [Ex. 6]	3.95*		100		100	100	90	80	83	
C=Cc1nn(-c2nccnc2OC)c(N)c1-c1cc(Cl)cc(C(F)(F)F)c1 [Ex. 9]	3.63*		100	100	100	100			100	100
COc1nccnc1-n1nc(C(F)(F)F)c(-c2cc(Cl)cc(C(F)(F)F)c2)c1N [Ex. 10]	4.07*				100	100	90	100		
CCOc1nccnc1-n1nc(C(F)(F)F)c(-c2cc(Cl)cc(C(F)(F)F)c2)c1N [Ex. 12]	4.47*		100	90	100	100	90	100		
COc1nccnc1-n1nc(C(F)(F)C(F)(F)F)c(-c2cc(F)cc(C(F)(F)F)c2)c1N [Ex. 21]	4.23*		100	100	100	100		100	100	100
CSc1nccnc1-n1nc(C(F)(F)F)c(-c2cc(Cl)cc(C(F)(F)F)c2)c1N [Ex. 28]	4.9*		100		100	100			100	
COc1nccnc1-n1nc(C(F)(F)F)c(-c2cc(Cl)cc(C(F)(F)F)c2)c1NCc1ccccc1 [Ex. 33]	5.28*		100	90						80
COc1ccc(CNc2c(-c3cc(Cl)cc(C(F)(F)F)c3)c(C(F)(F)F)nn2-c2nccnc2OC)cc1 [Ex. 41]	5.13*		100			100	80			90
COc1nccnc1-n1nc(C(F)(F)C(F)(F)C(F)(F)F)c(-c2cc(Cl)cc(C(F)(F)F)c2)c1N [Ex. 46]	4.91*		100	80	100	100	80		100	80
COc1nccnc1-n1nc(C(F)(F)C(F)F)c(-c2cc(Cl)cc(C(F)(F)F)c2)c1N [Ex. 59]	4.05*		100	100					83	100
COc1cc(-c2c(C(F)(F)F)nn(-c3nccnc3OC)c2N)cc(C(F)(F)F)c1OC [Ex. 89]	3.56*		100		100	100	100	80	100	
C=CCN(CC=C)c1c(-c2cc(Cl)cc(C(F)(F)F)c2)c(C(F)(F)F)nn1-c1nccnc1OC [Ex. 103]	4.08*									80

Now from value to molecule, other results behind:

log P [1, 2]	log P ([1]; *** LC-MS, neutral range, pH 7.8, 0.001 molar aqueous ammonium hydrogencarbonate / acetonitrile)	Structure (SMILES)	efficacy (Phaedon cochleariae) [%]	efficacy (Tetranychus urticae) [%]	efficacy (Boophilus microplus) [%]	efficacy (kill) (Lucilia cuprina larvae) [%]	efficacy (kill) (Ctenocephalides felis) [%]	efficacy (kill) (Musca domestica) [%]	efficacy (Spodoptera frugiperda) [%]	efficacy (Myzus persicae) [%]
3.47*	3.5***;	COc1nccnc1-n1nc(C(F)(F)F)c(-c2cc(F)c(OC)c(Cl)c2)c1N [Ex. 124]	100	90					100	
3.32*		COc1nccnc1-n1nc(C(F)(F)F)c(-c2cc(Br)c3c(c2)OCCCO3)c1N [Ex. 131]	100	100	100	100	100	100	100	
3.02*		COc1nccnc1-n1nc(C(F)(F)F)c(-c2cc(Cl)c3c(c2)COCO3)c1N [Ex. 135]	100		100	100	100		80	
3.25*		COc1nccnc1-n1nc(C(F)(F)F)c(-c2cc(Cl)c3c(c2)OCCCO3)c1N [Ex. 136]	100		100	100	100			
4.21*		CCOc1cc(-c2c(C(F)(F)F)nn(-c3nccnc3OC)c2N)cc(Cl)c1OCC(F)(F)F [Ex. 144]	100	100					100	
3.58*		COc1cc(-c2c(C(F)(F)C(F)F)nn(-c3nccnc3OC)c2N)cc(C(F)(F)F)c1OC [Ex. 157]	100	100					100	
3.79*		C=C(C)c1nn(-c2nccnc2OC)c(N)c1-c1cc(Cl)cc(Cl)c1 [Ex. 167]	100	100						100
3.77*		COc1nccnc1-n1nc(C(C)(C)F)c(-c2cc(Cl)cc(Cl)c2)c1N [Ex. 168]	100	100					100	100
3.27*		COc1nccnc1-n1nc(C(F)(F)F)c(-c2cc3c(c(C(F)(F)F)c2)OCCO3)c1N [Ex. 173]	100	90					100	

Source: patent US20120190687A1, “Pyrazinylpyrazoles” (Bayer CropScience Ag, priority 2009, published 2012)
